# Columns and labels:
# [1] = tested on: mouse Olfr96; test: cell-based cAMP HTRF dose-response assay, tagged mouse Olfr96 in HEK293T cells
# Text: (§1) In a further embodiment, to complete the deorphanization process, the candidate OR genes are further expressed in vitro for confirmation of activity against the compounds used to isolate the olfactory sensory neurons and other structurally-related compounds of interest. The mouse receptors identified from isolated olfactory neurons that respond to both Musk compounds are modified at their N-terminus with short polypeptide sequences (e.g., Flag (SEQ ID NO: 6), Rho (SEQ ID NO: 8; 20 first amino acids of the bovine rhodopsin receptor), or Lucy (SEQ ID NO: 10) tags), transiently expressed in HEK 293T cells, and stimulated separately with Musk compounds to confirm their identity as bona fide Musk compound receptors. Co-expression of the human G alpha subunit Gαolf in this cell-based assay activates the Gs transduction pathway that leads to an internal cAMP increase upon binding to the appropriate ligand. Alternatively, co-expression of the human G alpha subunit Gals in the cell based assay activates the Gq transduction pathway that leads to an internal Ca^2+ increase upon binding to the appropriate ligand. The above process and the results obtained so far serve to validate the process for rapid and reliable identification of mammalian odorant receptors for Musk compounds.
# Functional dose-response experiments were performed to evaluate the level of functional activity of the modified cell line. Using a cell-based assay, mouse Olfr96 was tested in an HEK293T cell line wherein the endogenous RTP1 gene has been activated and the odorant receptor chaperone was expressed. Flag-Rho-tagged receptor genes were co-transfected with the olfactory canonical G-protein Goff gene and were exposed to increasing concentrations of the Musk odorants Tonalide, Vulcanolide, and Muscone. Odorant-induced activity was detected by measuring the cAMP increase in the cytosol using an HTRF based kit (CisBio, cAMP dynamic 2 kit, 62AM4PEJ). […] In an additional repeat experiment using the same conditions, mouse Olfr96 and corresponding human ortholog OR11A1 were tested side by side in duplicate with a musk diversity set for specificity assessment.
# [2] = molecular target: T1, human ortholog OR11A1 (Homo sapiens, UniProt Q9GZK7); test: cell-based cAMP HTRF dose-response assay, tagged human OR11A1 in HEK293T cells; settings: Lucy-Flag-Rho-tagged receptor, in duplicate, musk diversity set, FIG. 3
# T1 construct: expressed in transfected cells
# T1 sequence (Q9GZK7 1-315): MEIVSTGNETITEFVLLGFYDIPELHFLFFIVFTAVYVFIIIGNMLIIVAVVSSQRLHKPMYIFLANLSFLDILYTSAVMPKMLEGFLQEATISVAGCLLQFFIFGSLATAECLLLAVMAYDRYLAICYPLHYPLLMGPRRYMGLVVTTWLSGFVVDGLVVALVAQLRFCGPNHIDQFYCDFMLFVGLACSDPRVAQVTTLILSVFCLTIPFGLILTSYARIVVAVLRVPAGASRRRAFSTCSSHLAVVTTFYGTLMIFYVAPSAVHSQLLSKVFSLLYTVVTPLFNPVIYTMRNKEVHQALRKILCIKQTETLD
# Text: as §1, with “The above process and the results obtained so far serve to validate the process for rapid and reliable identification of mammalian odorant receptors for Musk compounds.” left out
# Functional dose-response experiments were performed to evaluate the level of functional activity of the modified cell line. […] Odorant-induced activity was detected by measuring the cAMP increase in the cytosol using an HTRF based kit (CisBio, cAMP dynamic 2 kit, 62AM4PEJ). […]
# [3] = repeat experiment, Lucy-Flag-Rho-tagged receptor, HEK293T, in duplicate, musk diversity set, FIG. 3
# [4] = Flag-Rho-tagged receptor, HEK293T with activated RTP1, increasing concentrations of odorant, FIG. 2
Structure (SMILES),"dose-dependent increase of Olfr96 receptor activity (cAMP increase in the cytosol) [1, 3]","dose-dependent increase of Olfr96 receptor activity (cAMP increase in the cytosol) [1, 4]",dose-dependent increase of OR11A1 receptor activity (cAMP increase in the cytosol) [2]
Cc1c([N+](=O)[O-])c(C)c([N+](=O)[O-])c(C(C)(C)C)c1[N+](=O)[O-] [Musk X],dose-dependent increase,,
CC1C(C)(C)C2=C(C(=O)CCC2)C1(C)C (stereo not shown) [Cashmeran],dose-dependent increase,,
CC(=O)c1cc2c(cc1C)C(C)(C)C(C)CC2(C)C (stereo not shown) [Tonalide],dose-dependent increase,dose-dependent increase,
Cc1cc2c(cc1C=O)C(C)(C)[C@@H](C)[C@H](C)C2(C)C [Vulcanolide],dose-dependent increase,dose-dependent increase,dose-dependent increase
